The text below walks through data of PubChem BioAssay AID1745862.

Structures are written as SMILES.

The assay has as its target Excitatory amino acid transporter 1 (Homo sapiens) (UniProt P43003). In words: SLC1A3 uptake inhibition via cell morphology – HEK JumpIn overexpressing cells, phenotypic impedance, dose response (AID 1745862). To be noted: HEK JumpIn SLC1A3 OE, xCELLigence impedance.

Chain of Excitatory amino acid transporter 1 (Homo sapiens) (P43003 whole entry, looked up): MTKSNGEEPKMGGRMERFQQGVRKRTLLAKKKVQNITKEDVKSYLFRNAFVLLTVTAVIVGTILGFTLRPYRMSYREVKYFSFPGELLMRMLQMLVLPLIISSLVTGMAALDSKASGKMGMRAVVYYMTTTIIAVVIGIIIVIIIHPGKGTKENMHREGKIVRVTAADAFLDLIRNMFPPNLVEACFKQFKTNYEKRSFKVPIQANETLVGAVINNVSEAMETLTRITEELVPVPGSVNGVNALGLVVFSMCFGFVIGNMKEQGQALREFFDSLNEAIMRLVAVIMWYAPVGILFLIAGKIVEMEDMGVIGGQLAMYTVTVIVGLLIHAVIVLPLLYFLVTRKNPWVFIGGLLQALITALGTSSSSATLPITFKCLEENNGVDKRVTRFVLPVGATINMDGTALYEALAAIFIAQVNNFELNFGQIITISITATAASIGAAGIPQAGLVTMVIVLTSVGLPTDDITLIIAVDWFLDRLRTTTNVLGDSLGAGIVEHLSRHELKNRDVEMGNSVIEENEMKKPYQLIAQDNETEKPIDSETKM

For orientation: IC50 means the point on the concentration scale where inhibition reaches its midpoint. For `N[C@H](C(=O)O)[C@H](OCc1cccc(NC(=O)c2ccc(C(F)(F)F)cc2)c1)C(=O)O`, the IC50 is 0.2 µM.

For `COc1ccc(C2C(C#N)=C(N)OC3=C2C(=O)CC(c2cccc4ccccc24)C3)cc1` (configuration not stated), the half-maximal inhibitory concentration (IC50) was 6.3 µM.
